This note sets out measurements from patent US4797415A, “Benzofuran derivatives and use thereof for treating hyperuricemia” (Kotobuki Seiyaku Company Limited, priority 1982, dated 1989).

Read-outs that look alike come from different tables or passages of the source.

The test system of this assay is phenol red retention in circulation. The assay can be described thus: Uricosuric activity by phenol red retention test in mice. The following applies: mice, 30 min before 75 mg/kg phenol red, blood 60 min after phenol red; for response vs control in vivo at 200 mg/kg: Mus musculus, 1 h. Format: in vivo, male mice. Here is the method: Blood samples were collected from the retro-orbital plexus into heparinized capillary tubes 60 minutes after the phenol red injection. The retention of phenol red in circulation was determined according to the method described in J. Med. Pharmaceu.
Benzobromarone was administered subcutaneously to mice in an amount of 200 mg./kg. as a control or standard.

Where [1] appears, read: sc, s.c. 200 mg/kg, read-out: phenol red retention, percentage by comparison with the control group, S.C. (200 mg/kg).
[2] abbreviates: po, p.o. 200 mg/kg, read-out: phenol red retention, percentage by comparison with the control group, P.O. (200 mg/kg).

With `CCc1oc2ccccc2c1C(=O)c1ccccc1OCC(=O)O` [Compound 1, 2-(2-ethyl-3-benzofuroyl)phenoxyacetic acid], the response vs control in vivo at 200 mg/kg under setting [1] amounted to 152 ± 15.2%.

`CCc1oc2ccccc2c1C(=O)c1cccc(OCC(=O)O)c1` [Compound 2, 3-(2-ethyl-3-benzofuroyl)phenoxyacetic acid]: the response vs control in vivo at 200 mg/kg under setting [1] was found to be 180 ± 15.4%. Still for that read-out and setting: in the case of `CCc1oc2ccccc2c1C(=O)c1ccc(OCCC(=O)O)cc1` [Compound 4, 4-(2-ethyl-3-benzofuroyl)phenoxypropionic acid] it was 143 ± 19%. For `CCc1oc2ccccc2c1C(=O)c1ccc(OC(C)C(=O)O)cc1` (stereo not drawn) [Compound 5, 4-(2-ethyl-3-benzofuroyl)phenoxy-2-methylacetic acid], the response vs control in vivo at 200 mg/kg under setting [2] was found to be 176 ± 17.6% and the response vs control in vivo at 200 mg/kg under setting [1] was found to be 158 ± 15.1%.

For `CCOC(=O)COc1ccc(C(=O)c2c(CC)oc3ccccc23)cc1` [Compound 6, Ethyl 4-(2-ethyl-3-benzofuroyl)phenoxyacetate], the response vs control in vivo at 200 mg/kg reads like this: under setting [2], 119 ± 2.3%; under setting [1], 207 ± 32.5%. In the same order, the values of `CCc1oc2ccccc2c1C(=O)c1ccc(OCC(N)=O)cc1` [Compound 7, 4-(2-ethyl-3-benzofuroyl)phenoxyacetamide] are 104 ± 8.3% and 123 ± 23.1%. In the same order, the values of `CCc1oc2ccccc2c1C(=O)c1ccc(OCC(=O)NO)cc1` [Compound 8, 4-(2-ethyl-3-benzofuroyl)phenoxyacetohydroxamide] are 129 ± 17.6% and 167 ± 26.6%. For the compound `CCc1oc2ccccc2c1C(=O)c1ccc(OCC(=O)NCC(=O)OC)cc1` [Compound 9, Methyl 4-(2-ethyl-3-benzofuroyl)phenoxyacetoglycinate], the response vs control in vivo at 200 mg/kg runs as follows: under setting [2], 153 ± 15.8%; under setting [1], 125 ± 18.8%.

In the case of `CCc1oc2ccccc2c1C(=O)c1ccc(OCC(=O)NCC(N)=O)cc1` [Compound 10, 4-(2-ethyl-3-benzofuroyl)phenoxyacetoglycinamide], the response vs control in vivo at 200 mg/kg is 132 ± 26.3% under setting [2] and 123 ± 23.1% under setting [1]. Consider `CCc1oc2ccccc2c1C(=O)c1ccc(OCC(=O)OC)cc1` [Compound 11, Methyl 4-(2-ethyl-3-benzofuroyl)phenoxyacetate], for which, under setting [1], the response vs control in vivo at 200 mg/kg was found to be 114 ± 9.5%. On the same count and under the same terms, in the case of `CCc1oc2ccccc2c1C(O)c1ccc(O)cc1` (stereo not drawn) [Compound 12, (2-ethyl-3-benzofuranyl)-4-hydroxyphenylmethanol] it was 100 ± 21.4%. On the same count and under the same terms, in the case of `CCOC(=O)COc1ccc(C(O)c2c(CC)oc3ccccc23)cc1` (stereo not drawn) [Compound 13, Ethyl 4-(2-ethyl-3-hydroxymethylbenzofuranyl)phenoxyacetate] it was 114 ± 14.3%. Consider `CCOC(=O)COc1ccc(C(OCC)c2c(CC)oc3ccccc23)cc1` (stereo not drawn) [Compound 14], for which the response vs control in vivo at 200 mg/kg is, setting by setting: under setting [2], 120 ± 15%; under setting [1], 135 ± 34.6%. In the case of `CCCCOC(=O)COc1ccc(C(OCCCC)c2c(CC)oc3ccccc23)cc1` (stereo not drawn) [Compound 15, Butyl 4-(2-ethyl-3-butoxymethylbenzofuranyl)phenoxyacetate], the response vs control in vivo at 200 mg/kg reads like this: under setting [2], 175 ± 35%; under setting [1], 165 ± 34.6%.

For `Cc1oc2ccccc2c1C(=O)c1ccc(O)cc1` [Compound 16, 2-methyl-3-(4-hydroxybenzoyl)benzofuran], the response vs control in vivo at 200 mg/kg under setting [2] amounted to 112 ± 12.5% and the response vs control in vivo at 200 mg/kg under setting [1] was determined as 111 ± 11.1%. Turning to `CCOC(=O)COc1ccc(C(=O)c2c(C)oc3ccccc23)cc1` [Compound 17, Ethyl 4-(2-methyl-3-benzofuroyl)phenoxyacetate], the response vs control in vivo at 200 mg/kg came to 105 ± 10% under setting [2] and 115 ± 19.2% under setting [1]. On to `Cc1oc2ccccc2c1C(=O)c1ccc(OCC(=O)O)cc1` [Compound 18, 4-(2-methyl-3-benzofuroyl)phenoxyacetic acid], for which the response vs control in vivo at 200 mg/kg runs as follows: under setting [2], 135 ± 40%; under setting [1], 112 ± 15.4%. On to `CCc1oc2ccccc2c1C(=O)c1ccc(O)c(Cl)c1` [Compound 19, 2-ethyl-3-benzofuranyl 3-chloro-4-hydroxyphenyl ketone], for which the response vs control in vivo at 200 mg/kg under setting [1] worked out at 105 ± 19%.

Turning to `CCOC(=O)COc1ccc(C(=O)c2c(CC)oc3ccccc23)cc1Cl` [Compound 20, Ethyl 2-chloro-4-(2-ethyl-3-benzofuroyl)phenoxyacetate], under setting [1], the response vs control in vivo at 200 mg/kg was found to be 128 ± 16.7%. As for `C=C(CC(=O)c1c(CC)oc2ccccc12)C(=O)O` [Compound 21, 2-methylene-4-oxo-4-(2-ethyl-3-benzofuranyl)butyric acid], the response vs control in vivo at 200 mg/kg reads like this: under setting [2], 165 ± 21.7%; under setting [1], 100 ± 13.6%.

As to `CCc1oc2ccccc2c1C(=O)c1ccc(O)c(C)c1` [Compound 23, 2-ethyl-3-benzofuranyl 3-methyl-4-hydroxyphenyl ketone], the response vs control in vivo at 200 mg/kg under setting [1] came out at 81 ± 14.3%. On the same count and under the same terms, under `CCOC(=O)COc1ccc(C(=O)c2c(CC)oc3ccccc23)cc1C` [Compound 24, Ethyl 2-methyl-4-(2-ethyl-3-benzofuroyl)phenoxyacetate] stands 172 ± 27.7%. In the case of `CCc1oc2ccccc2c1C(=O)c1ccc(O)c([N+](=O)[O-])c1` [Compound 26, 2-ethyl-3-benzofuranyl 3-nitro-4-hydroxyphenyl ketone], the “phenol red retention, percentage by comparison with the control group, S.C. (given at a dose of 100 mg/kg)” value (s.c. 100 mg/kg (footnote *)) was 222.2 ± 27.7%. As to `CCOC(=O)COc1ccc(C(=O)c2c(CC)oc3ccccc23)cc1[N+](=O)[O-]` [Compound 27, Ethyl 2-nitro-4-(2-ethyl-3-benzofuroyl)phenoxyacetate], the response vs control in vivo at 200 mg/kg under setting [1] was 111 ± 11.1%. The same measure, in the same setting: under `CCc1sc2ccccc2c1C(=O)c1ccc(O)cc1` [Compound 29, 2-ethyl-3-(4-hydroxybenzoyl)thianaphthene] stands 100 ± 21.4%; under `CCOC(=O)COc1ccc(C(=O)c2c(CC)sc3ccccc23)cc1` [Compound 30, Ethyl 4-(2-ethyl-3-benzothenoyl)phenoxyacetate], 85.7 ± 14.3%.

For `CCc1sc2ccccc2c1C(=O)c1ccc(OCC(=O)O)cc1` [Compound 31, 4-(2-ethyl-3-benzothenoyl)phenoxyacetic acid], the response vs control in vivo at 200 mg/kg under setting [2] worked out at 162 ± 31.3% and the response vs control in vivo at 200 mg/kg under setting [1] came to 144 ± 22.2%. With `CCc1oc2ccccc2c1C(=O)c1ccc(O)c(C)c1C` [Compound 32, 2-ethyl-3-(2,3-dimethyl-4-hydroxybenzoyl)benzofuran], the response vs control in vivo at 200 mg/kg under setting [2] came out at 112 ± 18.8%. On the same count and under the same terms, under `CCc1oc2ccccc2c1C(=O)c1ccc(OCC(=O)OC)c(C)c1C` [Compound 33, Methyl 2,3-dimethyl-4-(2-ethyl-3-benzofuroyl)phenoxyacetate] stands 133 ± 15.6%.

Regarding `CCOC(=O)COc1ccc(C(=O)c2c(CC)oc3ccccc23)c(C)c1C` [Compound 34, Ethyl 2,3-dimethyl-4-(2-ethyl-3-benzofuroyl)phenoxyacetate], the response vs control in vivo at 200 mg/kg under setting [2] came to 124 ± 28.6%. For `CCc1oc2ccccc2c1C(=O)c1cc(C)c(O)cc1C` [Compound 36, 2-ethyl-3-(2,5-dimethyl-4-hydroxybenzoyl)benzofuran], under setting [2], the response vs control in vivo at 200 mg/kg amounted to 131 ± 15.6%.

As to `CCc1oc2ccccc2c1C(=O)c1cc(C)c(OCC(=O)OC)cc1C` [Compound 37, Methyl 2,5-dimethyl-4-(2-ethyl-3-benzofuroyl)phenoxyacetate], under setting [2], the response vs control in vivo at 200 mg/kg is 254 ± 15.6%.

On to `CCOC(=O)COc1cc(C)c(C(=O)c2c(CC)oc3ccccc23)cc1C` [Compound 38, Ethyl 2,5-dimethyl-4-(2-ethyl-3-benzofuroyl)phenoxyacetate], for which the response vs control in vivo at 200 mg/kg under setting [2] is 324 ± 19%. With `CCc1oc2ccccc2c1C(=O)c1cc(C)c(O)c(C)c1` [Compound 40, 2-ethyl-3-(3,5-dimethyl-4-hydroxybenzoyl)benzofuran], the response vs control in vivo at 200 mg/kg under setting [2] was 183 ± 22.2%. Same read-out and setting: in the case of `CCOC(=O)COc1c(C)cc(C(=O)c2c(CC)oc3ccccc23)cc1C` [Compound 41, Ethyl 2,6-dimethyl-4-(2-ethyl-3-benzofuroyl)phenoxyacetate] it was 183 ± 27.8%.

Turning to `CCc1oc2ccccc2c1C(=O)c1cc(C)c(OCC(=O)O)c(C)c1` [Compound 42, 2,6-dimethyl-4-(2-ethyl-3-benzofuroyl)phenoxyacetic acid], under setting [2], the response vs control in vivo at 200 mg/kg was found to be 394 ± 44.4%. Turning to `CCc1oc2ccccc2c1C(=O)c1ccc(OCc2nnn[nH]2)cc1` [Compound 43, 5-[4-(2-ethyl-3-benzofuroyl)phenoxymethyl]tetrazole], the response vs control in vivo at 200 mg/kg under setting [2] was determined as 430 ± 80%.

Turning to `CCc1oc2ccccc2c1C(=O)c1ccc(OCc2nnn[nH]2)c(Cl)c1` [Compound 44, 5-[2-chloro-4-(2-ethyl-3-benzofuroyl)phenoxymethyl]tetrazole], the response vs control in vivo at 200 mg/kg under setting [2] amounted to 175 ± 17.9%.

On to `CCc1oc2ccccc2c1C(=O)c1ccc(OCc2nnn[nH]2)c(C)c1` [Compound 45, 5-[2-methyl-4-(2-ethyl-3-benzofuroyl)phenoxymethyl]tetrazole], for which, under setting [2], the response vs control in vivo at 200 mg/kg came out at 218 ± 21.4%. As for `CCc1oc2ccccc2c1C(=O)c1ccc(OCc2nnn[nH]2)c(C)c1C` [Compound 46, 5-[2,3-dimethyl-4-(2-ethyl-3-benzofuroyl)phenoxymethyl]tetrazole], the response vs control in vivo at 200 mg/kg under setting [2] amounted to 240 ± 64%.

`CCc1oc2ccccc2c1C(=O)c1cc(C)c(OCc2nnn[nH]2)cc1C` [Compound 47, 5-[2,5-dimethyl-4-(2-ethyl-3-benzofuroyl)phenoxymethyl]tetrazole]: the response vs control in vivo at 200 mg/kg under setting [2] is 232 ± 28%.
